Measurements as given in patent publication US11638707B2, “Substituted amino triazoles useful as chitinase inhibitors” (Molecure S.A., priority 2019, dated 2023).

Legend:
[1] = molecular target: recombinant human AMCase (Homo sapiens (Human), UniProt Q9BZP6); assay: Human AMCase activity assay; assay type: biochemical; conditions: citrate buffer pH 5.2, 37° C., 60 minutes, read-out: hAMCase, IC50
Protocol: (§1) The assay was run in the 96-well plate format, each reaction in the total volume of 100 μL. 4-Methylumbelliferyl B-D-N,N′-diacetylchitobioside hydrate was used as a substrate for the enzyme. Upon hydrolysis by AMCase, the substrate releases 4-methylumbelliferyl (4MU) that, when ionized in basic pH, emits fluorescence at 460 nm. Briefly, 40 μL of a substrate was added to each well, followed by 10 μL of compound dilution and 50 μL of hAMCase recombinant enzyme solution. The reaction was carried out in citrate buffer, pH 5.2, in the dark, at 37° C. for 60 minutes with shaking. […] The IC50 values were calculated using GraphPad Prism.

[2] = molecular target: hERG channel (Homo sapiens (Human), UniProt Q12809); assay: Human ERG channel binding assay (fluorescence polarization); conditions: Table 1; tracer displacement, 4 h at room temperature
hERG channel, sequence (Q12809 whole entry): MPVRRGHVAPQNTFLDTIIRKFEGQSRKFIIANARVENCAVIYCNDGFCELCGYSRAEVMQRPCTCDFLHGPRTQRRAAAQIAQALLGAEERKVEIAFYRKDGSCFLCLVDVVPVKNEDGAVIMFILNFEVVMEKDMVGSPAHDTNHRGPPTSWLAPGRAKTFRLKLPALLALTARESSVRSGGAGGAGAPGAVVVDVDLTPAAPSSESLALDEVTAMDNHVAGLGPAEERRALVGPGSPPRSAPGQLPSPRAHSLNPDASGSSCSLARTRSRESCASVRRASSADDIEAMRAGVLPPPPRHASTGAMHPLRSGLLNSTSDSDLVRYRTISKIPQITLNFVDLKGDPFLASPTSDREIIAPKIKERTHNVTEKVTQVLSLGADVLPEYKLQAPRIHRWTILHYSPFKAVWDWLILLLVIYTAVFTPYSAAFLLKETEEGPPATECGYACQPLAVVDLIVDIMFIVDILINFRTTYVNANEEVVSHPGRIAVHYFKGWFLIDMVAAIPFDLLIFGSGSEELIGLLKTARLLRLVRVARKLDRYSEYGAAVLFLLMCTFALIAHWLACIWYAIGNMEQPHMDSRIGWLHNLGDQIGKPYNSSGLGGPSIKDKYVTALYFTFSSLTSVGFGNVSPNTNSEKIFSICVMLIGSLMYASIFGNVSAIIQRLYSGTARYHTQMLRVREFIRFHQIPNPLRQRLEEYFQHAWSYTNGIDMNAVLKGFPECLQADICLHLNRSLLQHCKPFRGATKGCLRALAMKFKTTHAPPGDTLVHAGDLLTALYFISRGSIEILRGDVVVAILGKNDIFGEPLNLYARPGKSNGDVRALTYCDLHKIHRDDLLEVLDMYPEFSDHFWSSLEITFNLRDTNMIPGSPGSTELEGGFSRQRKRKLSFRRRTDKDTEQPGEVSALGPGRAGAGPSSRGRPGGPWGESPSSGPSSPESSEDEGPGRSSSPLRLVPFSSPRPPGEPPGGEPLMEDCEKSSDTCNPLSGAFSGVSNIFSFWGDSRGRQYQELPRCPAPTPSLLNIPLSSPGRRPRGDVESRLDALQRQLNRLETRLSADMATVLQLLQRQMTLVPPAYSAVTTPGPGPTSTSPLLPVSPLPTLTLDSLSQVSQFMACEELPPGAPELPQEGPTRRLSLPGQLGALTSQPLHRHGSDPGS
Protocol: Human ERG Channel Binding Assay
Fluorescence polarization assay based on the principle of fluorescence polarization where a red-shifted fluorescent tracer is displaced from the hERG channel by compounds that bind to the channel was used to establish the binding of the compounds to hERG channel. […] Briefly, the compounds in serial dilutions were incubated with a membrane fraction containing hERG channel protein and a high-affinity red fluorescent hERG channel ligand in black 384-well plate. […] The IC50 values were calculated using GraphPad Prism.

[3] = molecular target: recombinant human CHIT1 (Homo sapiens (Human), UniProt Q13231); assay: Human CHIT1 activity assay; assay type: biochemical; conditions: recombinant human CHIT1, citrate buffer pH 5.2, 37° C., 60 minutes; read-out: hCHIT1, IC50
recombinant human CHIT1, sequence (Q13231 22-466): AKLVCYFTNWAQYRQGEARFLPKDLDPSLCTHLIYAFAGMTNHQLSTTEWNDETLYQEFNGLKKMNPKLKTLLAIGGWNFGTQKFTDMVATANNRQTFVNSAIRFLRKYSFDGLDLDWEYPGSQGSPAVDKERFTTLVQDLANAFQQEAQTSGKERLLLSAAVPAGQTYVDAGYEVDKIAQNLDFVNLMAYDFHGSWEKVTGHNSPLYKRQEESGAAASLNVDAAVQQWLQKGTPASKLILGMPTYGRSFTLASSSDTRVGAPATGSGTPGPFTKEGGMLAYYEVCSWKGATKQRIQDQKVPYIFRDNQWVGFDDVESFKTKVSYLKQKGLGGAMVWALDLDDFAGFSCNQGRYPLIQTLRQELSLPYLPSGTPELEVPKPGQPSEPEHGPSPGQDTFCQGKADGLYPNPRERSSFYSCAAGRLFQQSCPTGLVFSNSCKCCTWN
Protocol: as §1, with “4-methylumbelliferyl β-D-N,N′,N″-triacetylchitotriose” for “4-Methylumbelliferyl B-D-N,N′-diacetylchitobioside hydrate”, “CHIT1,” for “AMCase,”, “CHIT1” for “hAMCase”

recombinant human AMCase, sequence (Q9BZP6 22-476): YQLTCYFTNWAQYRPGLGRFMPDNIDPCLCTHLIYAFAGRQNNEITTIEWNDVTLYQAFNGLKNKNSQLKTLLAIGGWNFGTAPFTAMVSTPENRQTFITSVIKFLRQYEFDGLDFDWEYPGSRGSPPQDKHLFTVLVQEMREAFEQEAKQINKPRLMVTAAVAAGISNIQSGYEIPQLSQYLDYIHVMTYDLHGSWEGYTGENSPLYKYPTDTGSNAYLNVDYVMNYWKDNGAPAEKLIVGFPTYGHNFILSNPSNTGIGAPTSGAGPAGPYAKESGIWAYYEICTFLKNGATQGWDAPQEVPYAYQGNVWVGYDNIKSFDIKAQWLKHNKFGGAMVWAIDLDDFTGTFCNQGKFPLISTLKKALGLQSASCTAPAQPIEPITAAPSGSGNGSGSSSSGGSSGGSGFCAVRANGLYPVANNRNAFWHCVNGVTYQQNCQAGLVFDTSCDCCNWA

Compound	IC50 [1]	IC50 [3]	IC50 [2]
Cc1coc([C@H]2CN(C3CCN(c4nnc(N)[nH]4)CC3)[C@@H](Cc3ccc(Cl)cc3)CO2)n1 [Example 49, 5-(4-((2R,5S)-5-(4-chlorobenzyl)-2-(4-methyloxazol-2-yl)morpholino)piperidin-1-yl)-4H-1,2,4-triazol-3-amine 2,2,2-trifluoroacetate]	< 100 nM	< 100 nM	10000 to 25000 nM
Nc1nnc(N2CCC(N3C[C@H](C(=O)N4CCC(F)(F)C4)OC[C@@H]3Cc3ccc(Cl)cc3)CC2)[nH]1 [Example 54, ((2R,5S)-4-(1-(5-amino-4H-1,2,4-triazol-3-yl)piperidin-4-yl)-5-(4-chlorobenzyl)-morpholin-2-yl)(3,3-difluoropyrrolidin-1-yl)methanone 2,2,2-trifluoroacetate]	< 100 nM	100 to 1000 nM	> 100000 nM
Nc1nnc(N2CCC(N3C[C@H](C(=O)N4CCOCC4)OC[C@@H]3Cc3ccc(Cl)cc3)CC2)[nH]1 [Example 63, ((2R,5S)-4-(1-(5-amino-4H-1,2,4-triazol-3-yl)piperidin-4-yl)-5-(4-chlorobenzyl)-morpholin-2-yl)(morpholino)methanone 2,2,2-trifluoroacetate]	< 100 nM	100 to 1000 nM	> 100000 nM
Cc1nc([C@H]2CN(C3CCN(c4nnc(N)[nH]4)CC3)[C@@H](Cc3ccc(Cl)cc3)CO2)oc1C [Example 50, 5-(4-((2R,5S)-5-(4-chlorobenzyl)-2-(4,5-dimethyloxazol-2-yl)morpholino)piperidin-1-yl)-4H-1,2,4-triazol-3-amine 2,2,2-trifluoroacetate]	< 100 nM	< 100 nM	1000 to 10000 nM
Nc1nnc(N2CCC(N3C[C@H](c4ccn[nH]4)OC[C@@H]3Cc3ccc(Cl)cc3)CC2)[nH]1 [Example 12, 5-(4-((2R,5S)-5-(4-chlorobenzyl)-2-(1H-pyrazol-5-yl)morpholino)piperidin-1-yl)-4H-1,2,4-triazol-3-amine 2,2,2-trifluoroacetate]	< 100 nM	< 100 nM	> 100000 nM
Nc1nnc(N2CCC(N3CC(F)(F)CC[C@@H]3Cc3ccc(Cl)cc3)CC2)[nH]1 [Example 57, (R)-5-(2-(4-chlorobenzyl)-5,5-difluoro-[1,4′-bipiperidin]-1′-yl)-4H-1,2,4-triazol-3-amine 2,2,2-trifluoroacetate]	< 100 nM	< 100 nM	> 100000 nM
Nc1nnc(N2CCC(N3C[C@H](C(=O)NCC(F)(F)F)OC[C@@H]3Cc3ccc(Cl)cc3)CC2)[nH]1 [Example 26, (2R,5S)-4-(1-(5-amino-4H-1,2,4-triazol-3-yl)piperidin-4-yl)-5-(4-chlorobenzyl)-N-(2,2,2-trifluoroethyl)morpholine-2-carboxamide 2,2,2-trifluoroacetate]	< 100 nM	100 to 1000 nM	> 100000 nM
CC(C)(C)NC(=O)[C@H]1CN(C2CCN(c3nnc(N)[nH]3)CC2)[C@@H](Cc2ccc(Cl)cc2)CO1 [Example 66, (2R,5S)-4-(1-(5-amino-4H-1,2,4-triazol-3-yl)piperidin-4-yl)-N-(tert-butyl)-5-(4-chlorobenzyl)morpholine-2-carboxamide 2,2,2-trifluoroacetate]	< 100 nM	100 to 1000 nM	> 100000 nM
Nc1nnc(N2CCC(N3C[C@H](N4CCOCC4)CC[C@@H]3Cc3ccc(Cl)cc3)CC2)[nH]1 [Example 58, 5-((2R,5R)-2-(4-chlorobenzyl)-5-morpholino-[1,4′-bipiperidin]-1′-yl)-4H-1,2,4-triazol-3-amine 2,2,2-trifluoroacetate]	< 100 nM	100 to 1000 nM	10000 to 25000 nM
Cc1cc([C@H]2CN(C3CCN(c4nnc(N)[nH]4)CC3)[C@@H](Cc3ccc(Cl)cc3)CO2)on1 [Example 22, 5-(4-((2R,5S)-5-(4-chlorobenzyl)-2-(3-methylisoxazol-5-yl)morpholino)piperidin-1-yl)-4H-1,2,4-triazol-3-amine 2,2,2-trifluoroacetate]	< 100 nM	< 100 nM	> 100000 nM
Cc1cc([C@H]2CN(C3CCN(c4nnc(N)[nH]4)CC3)[C@@H](Cc3ccc(Cl)cc3)CO2)nn1C [Example 11, 5-(4-((2R,5S)-5-(4-chlorobenzyl)-2-(1,5-dimethyl-1H-pyrazol-3-yl)morpholino)-piperidin-1-yl)-4H-1,2,4-triazol-3-amine 2,2,2-trifluoroacetate]	< 100 nM	< 100 nM	> 100000 nM

Further lines, with some results ahead:

IC50 [1]	IC50 [3]	Compound	IC50 [2]
< 100 nM	< 100 nM	Nc1nnc(N2CCC(N3C[C@H](Cn4cncn4)OC[C@@H]3Cc3ccc(Cl)cc3)CC2)[nH]1 [Example 27, 5-(4-((2R,5S)-2-((1H-1,2,4-triazol-1-yl)methyl)-5-(4-chlorobenzyl)morpholino)piperidin-1-yl)-4H-1,2,4-triazol-3-amine 2,2,2-trifluoroacetate]	> 100000 nM
< 100 nM	100 to 1000 nM	Nc1nnc(N2CCC(N3C[C@H](C(=O)N4CCCC4)OC[C@@H]3Cc3ccc(Cl)cc3)CC2)[nH]1 [Example 60, ((2R,5S)-4-(1-(5-amino-4H-1,2,4-triazol-3-yl)piperidin-4-yl)-5-(4-chlorobenzyl)-morpholin-2-yl)(pyrrolidin-1-yl)methanone 2,2,2-trifluoroacetate]	> 100000 nM
< 100 nM	< 100 nM	Nc1nnc(N2CCC(N3C[C@H]([C@@H](O)C(F)(F)F)OC[C@@H]3Cc3ccc(Cl)cc3)CC2)[nH]1 [Example 17, (R)-1-((2R,5S)-4-(1-(5-amino-4H-1,2,4-triazol-3-yl)piperidin-4-yl)-5-(4-chlorobenzyl)morpholin-2-yl)-2,2,2-trifluoroethanol 2,2,2-trifluoroacetate]	25000 to 100000 nM
< 100 nM	< 100 nM	Cn1nnc(C[C@H]2CN(C3CCN(c4nnc(N)[nH]4)CC3)[C@@H](Cc3ccc(Cl)cc3)CO2)n1 [Example 5, 5-(4-((2S,5S)-5-(4-chlorobenzyl)-2-((2-methyl-2H-tetrazol-5-yl)methyl)-morpholino)piperidin-1-yl)-4H-1,2,4-triazol-3-amine 2,2,2-trifluoroacetate]	25000 to 100000 nM
< 100 nM	< 100 nM	C[C@@H](O)[C@H]1CN(C2CCN(c3nnc(N)[nH]3)CC2)[C@@H](Cc2ccc(Cl)cc2)CO1 [Example 67, (R)-1-((2R,5S)-4-(1-(5-amino-4H-1,2,4-triazol-3-yl)piperidin-4-yl)-5-(4-chlorobenzyl)morpholin-2-yl)ethanol 2,2,2-trifluoroacetate]	> 100000 nM
< 100 nM	< 100 nM	Nc1nnc(N2CCC(N3C[C@H](Cn4cc(Cl)cn4)OC[C@@H]3Cc3ccc(Cl)cc3)CC2)[nH]1 [Example 44, 5-(4-((2R,5S)-2-((4-chloro-1H-pyrazol-1-yl)methyl)-5-(4-chlorobenzyl)-morpholino)piperidin-1-yl)-4H-1,2,4-triazol-3-amine 2,2,2-trifluoroacetate]	1000 to 10000 nM
< 100 nM	< 100 nM	Nc1nnc(N2CCC(N3C[C@H](CN4CCCC4=O)OC[C@@H]3Cc3ccc(Cl)cc3)CC2)[nH]1 [Example 7, 1-(((2R,5S)-4-(1-(5-amino-4H-1,2,4-triazol-3-yl)piperidin-4-yl)-5-(4-chlorobenzyl)-morpholin-2-yl)methyl)pyrrolidin-2-one 2,2,2-trifluoroacetate]	> 100000 nM
< 100 nM	100 to 1000 nM	Nc1nnc(N2CCC(N3C[C@H](CN4CC[C@H](O)C4)OC[C@@H]3Cc3ccc(Cl)cc3)CC2)[nH]1 [Example 30, (S)-1-(((2S,5S)-4-(1-(5-amino-4H-1,2,4-triazol-3-yl)piperidin-4-yl)-5-(4-chlorobenzyl)morpholin-2-yl)methyl)pyrrolidin-3-ol 2,2,2-trifluoroacetate]	> 100000 nM
< 100 nM	< 100 nM	CC(C)(F)[C@H]1CN(C2CCN(c3nnc(N)[nH]3)CC2)[C@@H](Cc2ccc(Cl)cc2)CO1 [Example 1, 5-(4-((2R,5S)-5-(4-chlorobenzyl)-2-(2-fluoropropan-2-yl)morpholino)piperidin-1-yl)-4H-1,2,4-triazol-3-amine 2,2,2-trifluoroacetate]	25000 to 100000 nM
< 100 nM	< 100 nM	Nc1nnc(N2CCC(N3C[C@H](CN4CC(F)C4)OC[C@@H]3Cc3ccc(Cl)cc3)CC2)[nH]1 [Example 37, 5-(4-((2S,5S)-5-(4-chlorobenzyl)-2-((3-fluoroazetidin-1-yl)methyl)morpholino)-piperidin-1-yl)-4H-1,2,4-triazol-3-amine 2,2,2-trifluoroacetate]	25000 to 100000 nM
